Values of other authors in patent US20030124640A1, “Predictive assay for the outcome of IVF” (Royal Free Hospital School of Medicine, priority 1996, published 2003).
Like-named read-outs stand apart in the source and are kept apart here.

Legend:
[1] = system: 11βHSD1
[2] = target: T1, 11β-HSD2 (Homo sapiens, UniProt P80365); conditions: renal isoform 11β-HSD2, NAD+ dependent 11β-dehydrogenase
T1 sequence (P80365 1-405): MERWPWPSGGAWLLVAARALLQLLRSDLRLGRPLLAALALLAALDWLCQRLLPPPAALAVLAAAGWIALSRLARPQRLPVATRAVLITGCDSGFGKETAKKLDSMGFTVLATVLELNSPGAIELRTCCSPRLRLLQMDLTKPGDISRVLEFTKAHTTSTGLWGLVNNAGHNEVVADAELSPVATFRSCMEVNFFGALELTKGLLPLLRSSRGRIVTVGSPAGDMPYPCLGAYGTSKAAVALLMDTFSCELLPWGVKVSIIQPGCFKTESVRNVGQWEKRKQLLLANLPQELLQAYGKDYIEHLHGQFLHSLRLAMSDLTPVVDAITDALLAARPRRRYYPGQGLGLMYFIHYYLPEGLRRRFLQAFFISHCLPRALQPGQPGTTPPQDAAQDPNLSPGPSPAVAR

[3] = system: hepatic 11β-HSD
[4] = system: ovarian 11β-HSD; conditions: for Inhibition of 11β-HSD activity: cultured human granulosa-lutein cells; for Acute effect on ovarian 11β-HSD activity: in vitro
[5] = target: T2, renal 11β-HSD (Homo sapiens, UniProt P80365)
T2 sequence (P80365 1-405): T1 sequence (P80365 1-405)

[6] = hepatic isoform 11βHSD1, NADP(H) cofactor, read-out: Km for 11β-dehydrogenase activity

Compound	Km [1, 6] [µM]	Km [2] [µM]	Inhibition of 11β-HSD activity [4]	Acute effect on ovarian 11β-HSD activity [4]	Acute effect on renal 11β-HSD activity [5]	further results
C[C@]12C[C@H](O)[C@H]3[C@@H](CCC4=CC(=O)CC[C@@]43C)[C@@H]1CC[C@@H]2C(=O)CO [corticosterone]	~2	0.026				
C[C@]12CCC(=O)C=C1CC[C@@H]1[C@@H]2[C@@H](O)C[C@@]2(C)[C@H]1CC[C@]2(O)C(=O)CO [cortisol]	17	0.04				
C[C@]12CCC(=O)C=C1CC[C@@H]1[C@@H]2C(=O)C[C@@]2(C)[C@H]1CC[C@]2(O)C(=O)CO [cortisone]						Km ([1]; hepatic isoform 11βHSD1, cortisone to cortisol, read-out: Km for cortisone (11-ketosteroid reductase activity)): 0.14 to 0.272 µM
C[C@]12CC[C@@H]3c4ccc(O)cc4CC[C@H]3[C@@H]1CC[C@@H]2O [oestradiol]						Effect on hepatic 11β-HSD activity in vivo [3]: inhibits
CC(=O)[C@H]1CC[C@H]2[C@@H]3CC=C4C[C@@H](O)CC[C@]4(C)[C@H]3CC[C@]12C [pregnenolone]			can inhibit	inhibit	inhibit	
CC(=O)[C@H]1CC[C@H]2[C@@H]3CCC4=CC(=O)CC[C@]4(C)[C@H]3CC[C@]12C [progesterone]			can inhibit	inhibit	inhibit	
